Source: patent US7344710B2 (priority 2001, dated 2008)

Assays:
[1] = mouse, in vivo
B16 tumors = tested on: B16 tumors; set-up: species or system mice; conditions: mouse, in vivo
HCT116 tumor xenograft = tested on: HCT116 tumor xenograft; set-up: species or system mice; conditions: mouse, in vivo

## COBALT
[1]
  Deaths after a single dose of COBALT: three of the mice died
  Deaths after the first dose of COBALT: Four mice died
B16 tumors
  Effect on tumor growth (FIG. 6C): tumors remained small over the four week course of this experiment
HCT116 tumor xenograft
  Effect on tumor growth (FIG. 6A, 6B): tumors actually shrinking rather than simply slowing
  Mice cured / complete tumor regression / long-term tumor-free survival: four were apparently cured of their tumor and Four of these seven mice were cured and four of eight and half
  Mice developing striking hemorrhagic necrosis of their tumors: seven of eight
  Time at which a black spot of hemorrhagic necrosis is evident: 0.3 days
  Visible hemorrhagic necrosis and disappearance of tumors (FIG. 5): dramatic effects on large subcutaneous tumors
